# In PubChem BioAssay (NCI):
#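 The compound was tested at five concentrations on cells cultured in 96-well plates, with a 48-hour exposure period. TGI: concentration producing complete growth inhibition.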
# What was measured:
# Assay in all cases: NCI anticancer screen, dose series, 48 h
# 786-0 renal = system: 786-0 renal
# A549 NSCLC = system: A549 NSCLC
# ACHN renal = system: ACHN renal
# CAKI-1 renal = system: CAKI-1 renal
# CCRF-CEM leukemia = system: CCRF-CEM leukemia
# COLO 205 colon = system: COLO 205 colon
# DLD-1 colon = system: DLD-1 colon
# DMS 273 small cell lung = system: DMS 273 small cell lung
# EKVX NSCLC = system: EKVX NSCLC
# HCC-2998 colon = system: HCC-2998 colon
# HCT-116 colon = system: HCT-116 colon
# HCT-15 colon = system: HCT-15 colon
# HOP-18 NSCLC = system: HOP-18 NSCLC
# HOP-62 NSCLC = system: HOP-62 NSCLC
# HT29 colon = system: HT29 colon
# IGROV1 ovarian = system: IGROV1 ovarian
# K-562 leukemia = system: K-562 leukemia
# KM12 colon = system: KM12 colon
# KM20L2 colon = system: KM20L2 colon
# LOX IMVI melanoma = system: LOX IMVI melanoma
# LXFL 529 NSCLC = system: LXFL 529 NSCLC
# M14 melanoma = system: M14 melanoma
# MOLT-4 leukemia = system: MOLT-4 leukemia
# NCI-H226 lung = system: NCI-H226 lung
# NCI-H23 lung = system: NCI-H23 lung
# NCI-H460 lung = system: NCI-H460 lung
# NCI-H522 lung = system: NCI-H522 lung
# OVCAR-3 ovarian = system: OVCAR-3 ovarian
# OVCAR-4 ovarian = system: OVCAR-4 ovarian
# OVCAR-5 ovarian = system: OVCAR-5 ovarian
# OVCAR-8 ovarian = system: OVCAR-8 ovarian
# RXF 393 renal = system: RXF 393 renal
# SF-268 CNS = system: SF-268 CNS
# SF-295 CNS = system: SF-295 CNS
# SF-539 CNS = system: SF-539 CNS
# SK-MEL-2 melanoma = system: SK-MEL-2 melanoma
# SK-MEL-5 melanoma = system: SK-MEL-5 melanoma
# SK-OV-3 ovarian = system: SK-OV-3 ovarian
# SN12C renal = system: SN12C renal
# SNB-19 CNS = system: SNB-19 CNS
# SNB-75 CNS = system: SNB-75 CNS
# SNB-78 CNS = system: SNB-78 CNS
# SW-620 colon = system: SW-620 colon
# TK-10 renal = system: TK-10 renal
# U251 CNS = system: U251 CNS
# UACC-257 melanoma = system: UACC-257 melanoma
# UACC-62 melanoma = system: UACC-62 melanoma
# UO-31 renal = system: UO-31 renal
# XF 498 CNS = system: XF 498 CNS
smiles,measurement,setting,value
Cn1cc(NC(=O)c2cc(NC(=O)CCCCCCCCCCC(=O)Nc3cc(C(=O)Nc4cc(C(=O)NCCC(=N)N)n(C)c4)n(C)c3)cn2C)cc1C(=O)NCCC(=N)N,TGI,786-0 renal,> 100 µM
same,TGI,A549 NSCLC,> 100 µM
same,TGI,ACHN renal,> 100 µM
same,TGI,CAKI-1 renal,> 100 µM
same,TGI,CCRF-CEM leukemia,> 100 µM
same,TGI,COLO 205 colon,> 100 µM
same,TGI,DLD-1 colon,> 100 µM
same,TGI,DMS 273 small cell lung,> 100 µM
same,TGI,EKVX NSCLC,90.2 µM
same,TGI,HCC-2998 colon,73.6 µM
same,TGI,HCT-116 colon,> 100 µM
same,TGI,HCT-15 colon,> 100 µM
same,TGI,HOP-18 NSCLC,> 100 µM
same,TGI,HOP-62 NSCLC,81.3 µM
same,TGI,HT29 colon,> 100 µM
same,TGI,IGROV1 ovarian,> 100 µM
same,TGI,K-562 leukemia,> 100 µM
same,TGI,KM12 colon,> 100 µM
same,TGI,KM20L2 colon,> 100 µM
same,TGI,LOX IMVI melanoma,> 100 µM
same,TGI,LXFL 529 NSCLC,> 100 µM
same,TGI,M14 melanoma,> 100 µM
same,TGI,MOLT-4 leukemia,> 100 µM
same,TGI,NCI-H226 lung,> 100 µM
same,TGI,NCI-H23 lung,> 100 µM
same,TGI,NCI-H460 lung,> 100 µM
same,TGI,NCI-H522 lung,> 100 µM
same,TGI,OVCAR-3 ovarian,> 100 µM
same,TGI,OVCAR-4 ovarian,> 100 µM
same,TGI,OVCAR-5 ovarian,> 100 µM
same,TGI,OVCAR-8 ovarian,53.5 µM
same,TGI,RXF 393 renal,77.5 µM
same,TGI,SF-268 CNS,> 100 µM
same,TGI,SF-295 CNS,> 100 µM
same,TGI,SF-539 CNS,> 100 µM
same,TGI,SK-MEL-2 melanoma,> 100 µM
same,TGI,SK-MEL-5 melanoma,87.8 µM
same,TGI,SK-OV-3 ovarian,> 100 µM
same,TGI,SN12C renal,> 100 µM
same,TGI,SNB-19 CNS,> 100 µM
same,TGI,SNB-75 CNS,> 100 µM
same,TGI,SNB-78 CNS,> 100 µM
same,TGI,SW-620 colon,55 µM
same,TGI,TK-10 renal,87.9 µM
same,TGI,U251 CNS,> 100 µM
same,TGI,UACC-257 melanoma,> 100 µM
same,TGI,UACC-62 melanoma,> 100 µM
same,TGI,UO-31 renal,> 100 µM
same,TGI,XF 498 CNS,> 100 µM
